For 22 compounds, Emax results are on record in patent US8119681B2, “2-[1-phenyl-5-hydroxy or methoxy-4alpha-methyl-hexahydrocyclopenta [ƒ]indazole-5-YL]ethyl phenyl derivatives as glucocorticoid receptor ligands” (Merck Sharp & Dohme Corp., priority 2006, dated 2012).

For this experiment, the target named is T1, human GR (Homo sapiens, UniProt P04150).
T1 sequence (P04150 1-777): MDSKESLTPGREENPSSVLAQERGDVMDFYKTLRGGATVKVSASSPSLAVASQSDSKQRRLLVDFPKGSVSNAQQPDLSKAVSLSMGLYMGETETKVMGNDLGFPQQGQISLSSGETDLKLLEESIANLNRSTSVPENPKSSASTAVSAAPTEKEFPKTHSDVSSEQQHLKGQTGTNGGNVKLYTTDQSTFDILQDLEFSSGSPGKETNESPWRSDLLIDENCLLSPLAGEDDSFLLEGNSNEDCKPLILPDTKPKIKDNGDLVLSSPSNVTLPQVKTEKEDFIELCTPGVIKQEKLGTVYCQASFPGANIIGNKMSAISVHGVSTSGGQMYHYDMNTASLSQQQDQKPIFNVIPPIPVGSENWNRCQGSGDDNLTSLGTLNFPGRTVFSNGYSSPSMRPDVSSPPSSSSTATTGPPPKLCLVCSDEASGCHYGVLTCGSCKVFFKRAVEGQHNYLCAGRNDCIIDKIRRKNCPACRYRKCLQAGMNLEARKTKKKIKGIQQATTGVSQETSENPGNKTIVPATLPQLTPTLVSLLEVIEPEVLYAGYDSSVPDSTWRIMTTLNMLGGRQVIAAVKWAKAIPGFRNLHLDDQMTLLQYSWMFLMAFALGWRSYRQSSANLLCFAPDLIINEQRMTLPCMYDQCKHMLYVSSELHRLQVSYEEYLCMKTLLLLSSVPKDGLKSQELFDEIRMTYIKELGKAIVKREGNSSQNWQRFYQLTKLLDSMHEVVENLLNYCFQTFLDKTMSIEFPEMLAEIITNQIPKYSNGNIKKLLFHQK
The experiment in a line: Transrepression Assay (GITAR), TNFα-β-lactamase reporter gene in U937 cells. In kind it is cell-based. More on the design: U937 cells contain an endogenous glucocorticoid receptor (GR); endogenous in cells; host or cells: U937 cells stably transfected with the TNF-α promoter/β-lactamase reporter only. The source says: Transrepression Assay (GITAR)
This assay assesses the ability of test compounds to control transcription from the TNFα-β-lactamase reporter gene in U937 cells, a human myelomonocytic leukemia cell line that naturally expresses the human GR. The assay measures compound dependent-repression of the TNFa promoter linked to a reporter gene.
The human U937 cells that had been stably transfected with the TNF-α promoter driving β-lactamase are used for this assay. U937 cells contain an endogenous glucocorticoid receptor (GR). […] 50,000 cells/well are plated in 96 well black-walled plates the day of assay. Test compounds are added 10 μL/well, and cells are incubated at 37° C. for 30˜45 min. For assaying compounds, first dilute 1:10 in DMSO to make 1 mM, then further dilute 1:100 in medium to make 10× stock prior to adding to the cells. Add 50 ng/ml PMA (Sigma, cat# P8139) 10 μL/well to a final concentration 5 ng/ml, and 1 μg/ml LPS (Sigma, cat# L4130) 10 μL/well to a final concentration 100 ng/ml. Incubate cells at 370 C overnight for ˜18 hr. PMA is stored frozen as 100 μg/ml stock in DMSO. Dilute 1:10 in DMSO for a working stock of 10 μg/ml and store at −20 C. For assaying, dilute the 10 μg/ml working stock 1:200 in medium to make a 10× solution (50 ng/ml). Store frozen LPS at 1 mg/ml in PBS, dilute 1:1000 in medium to make 10× (1 μg/ml) for the assay. Add 6× loading buffer (CCF2-AM) 20 μL/well, and incubate at room temperature for 70˜90 min. […] The activity repressed by 100 nM dexamethasone alone is set as 100% activity.
A general note: A reporter such as luciferase makes a cellular process visible.

The mark [1] stands for this setting: U-937, 100 nM dexamethasone = 100% activity, read-out: maximal activity in the transrepression assay.

SMILES strings stand for the structures. Where two headings read alike, the source gives them in different places.

`C[C@]12Cc3cnn(-c4ccc(F)cc4)c3C=C1CC[C@@]2(O)CCc1ccccc1C(=O)O` [Example 1, 2-{2-[(4αS,5R)-1-(4-Fluorophenyl)-5-hydroxy-4α-methyl-1,4,4α,5,6,7-hexahydrocyclopenta[f]indazol-5-yl]ethyl}benzoic acid]: the Emax under setting [1] lay in the range of 5 to 100%.
Still for that read-out and setting: for `C[C@]12Cc3cnn(-c4ccc(F)cc4)c3C=C1CC[C@@]2(O)CCc1ccccc1CNC(=O)C1CC1` [Example 4] the value was 5 to 100%.
For `CCOC(=O)NCc1ccccc1CC[C@]1(O)CCC2=Cc3c(cnn3-c3ccc(F)cc3)C[C@@]21C` [Example 6, Ethyl(2-(2-[(4αS,5R)-1-(4-fluorophenyl)-5-hydroxy-4α-methyl-1,4,4α,5,6,7-hexahydrocyclopenta(f)indazol-5-yl]ethyl)benzyl)carbamate], the Emax under setting [1] fell in the range of 5 to 100%.
The same measure, in the same setting: in the case of `C[C@]12Cc3cnn(-c4ccc(F)cc4)c3C=C1CC[C@@]2(O)CCc1ccccc1C1(NS(=O)(=O)C2CC2)CC1` [Example 7, N-[1-(2-{2-[(4αS,5R)-1-(4-Fluorophenyl)-5-hydroxy-4α-methyl-1,4,4α,5,6,7-hexahydrocyclopenta[f]indazol-5-yl]ethyl}phenyl)cyclopropyl]cyclopropanesulfonamide] it was 5 to 100%; in that of `C[C@@H](NS(=O)(=O)C1CC1)c1ccccc1CC[C@]1(O)CCC2=Cc3c(cnn3-c3ccc(F)cc3)C[C@@]21C` [Example 8, N-[(1R)-1-(2-{2-[(4αS,5R)-1-(4-Fluorophenyl)-5-hydroxy-4α-methyl-1,4,4α,5,6,7-hexahydrocyclopenta[f]indazol-5-yl]ethyl}phenyl)ethyl]cyclopropanesulfonamide], 5 to 100%; in that of `CCNC(=O)OCc1ccccc1CC[C@]1(O)CCC2=Cc3c(cnn3-c3ccc(F)cc3)C[C@@]21C` [Example 9], 5 to 100%.
On the same count and under the same terms, in the case of `C[C@]12Cc3cnn(-c4ccc(F)cc4)c3C=C1CC[C@@]2(O)CCc1ccccc1-c1ccc(F)nc1` [Example 10, (4αS,5R)-1-(4-fluorophenyl)-5-{2-[2-(6-fluoropyridin-3-yl)phenyl]ethyl}-4α-methyl-1,4,4α,5,6,7-hexahydrocyclopenta[f]indazol-5-ol] it was 5 to 100%.
Same read-out and setting: in the case of `CCOC(=O)Nc1ccccc1CC[C@]1(O)CCC2=Cc3c(cnn3-c3ccc(F)cc3)C[C@@]21C` [Example 12, ethyl (2-{2-[(4αS,5R)-1-(4-fluorophenyl)-5-hydroxy-4α-methyl-1,4,4α,5,6,7-hexahydrocyclopenta[f]indazol-5-yl]ethyl}phenyl)carbamate] it was 5 to 100%; in that of `CCNC(=O)Nc1ccccc1CC[C@]1(O)CCC2=Cc3c(cnn3-c3ccc(F)cc3)C[C@@]21C` [Example 13, N-ethyl-N′-(2-{2-[(4αS,5R)-1-(4-fluorophenyl)-5-hydroxy-4α-methyl-1,4,4α,5,6,7-hexahydrocyclopenta[f]indazol-5-yl]ethyl}phenyl)urea], 5 to 100%; in that of `C[C@]12Cc3cnn(-c4ccc(F)cc4)c3C=C1CC[C@@]2(O)CCc1ccccc1O` [Example 16, (4αS,5R)-1-(4-fluorophenyl)-5-[2-(2-hydroxyphenyl)ethyl]-4α-methyl-1,4,4α,5,6,7-hexahydrocyclopenta[f]indazol-5-ol], 5 to 100%.
`CCOC(=O)Oc1ccccc1CC[C@]1(O)CCC2=Cc3c(cnn3-c3ccc(F)cc3)C[C@@]21C` [Example 17, Ethyl-(2-(2-[(4αS,5R)-1-(4-fluorophenyl)-5-hydroxy-4α-methyl-1,4,4α,5,6,7-hexahydrocyclopenta(f)indazol-5-yl]ethyl)phenyl)carbonate]: under setting [1], the Emax was 5 to 100%.
Consider `CCNC(=O)Oc1ccccc1CC[C@]1(O)CCC2=Cc3c(cnn3-c3ccc(F)cc3)C[C@@]21C` [Example 18, 2-{2-[(4αS,5R)-1-(4-fluorophenyl)-5-hydroxy-4α-methyl-1,4,4α,5,6,7-hexahydrocyclopenta[f]indazol-5-yl]ethyl}phenyl ethylcarbamate], for which the Emax (U-937, read-out: maximal activity in the transrepression assay) lay in the range of 5 to 100%.
In the case of `C[C@]12Cc3cnn(-c4ccc(F)cc4)c3C=C1CC[C@@]2(O)CCc1ccccc1C#N` [Example 20, 2-{2-[(4αS,5R)-1-(4-fluorophenyl)-5-hydroxy-4α-methyl-1,4,4α,5,6,7-hexahydrocyclopenta[f]indazol-5-yl]ethyl}benzonitrile], the Emax under setting [1] was 5 to 100%.
Take `C[C@]12Cc3cnn(-c4ccc(F)cc4)c3C=C1CC[C@@]2(O)CCc1ccccc1C=O` [Example 21, 2-{2-[(4αS,5R)-1-(4-Fluorophenyl)-5-hydroxy-4α-methyl-1,4,4α,5,6,7-hexahydrocyclopenta[f]indazol-5-yl]ethyl}benzaldehyde]: the Emax under setting [1] lay within 5 to 100%.
On the same count and under the same terms, in the case of `C[C@]12Cc3cnn(-c4ccc(F)cc4)c3C=C1CC[C@@]2(O)CCc1ccccc1S(N)(=O)=O` [Example 22, 2-{2-[(4αS,5R)-1-(4-fluorophenyl)-5-hydroxy-4α-methyl-1,4,4α,5,6,7-hexahydrocyclopenta[f]indazol-5-yl]ethyl}benzenesulfonamide] it was 5 to 100%; in that of `CCOC1(OCC)CN(C(=O)c2ccccc2CC[C@]2(O)CCC3=Cc4c(cnn4-c4ccc(F)cc4)C[C@@]32C)C1` [Example 24, (4αS,5R)-5-(2-{2-[(3,3-diethoxyazetidin-1-yl)carbonyl]phenyl}ethyl)-1-(4-fluorophenyl)-4α-methyl-1,4,4α,5,6,7-hexahydrocyclopenta[f]indazol-5-ol], 5 to 100%.
With `CC(C)(C)CNC(=O)c1ccccc1CC[C@]1(O)CCC2=Cc3c(cnn3-c3ccc(F)cc3)C[C@@]21C` [Example 25, N-(2,2-dimethylpropyl)-2-{2-[(4αS,5R)-1-(4-fluorophenyl)-5-hydroxy-4α-methyl-1,4,4α,5,6,7-hexahydrocyclopenta[f]indazol-5-yl]ethyl}benzamide], the Emax under setting [1] lay within 5 to 100%.
Same read-out and setting: for `CCNC(=O)c1ccccc1CC[C@]1(O)CCC2=Cc3c(cnn3-c3ccccc3)C[C@@]21C` [Example 27, N-ethyl-2-{2-[(4αS,5R)-5-hydroxy-4α-methyl-1-phenyl-1,4,4α,5,6,7-hexahydrocyclopenta[f]indazol-5-yl]ethyl}benzamide] the value was 5 to 100%; for `CCNC(=O)c1ccccc1CC[C@]1(O)CCC2=Cc3c(cnn3-c3cccc(F)c3)C[C@@]21C` [Example 36, N-ethyl-2-{2-[(4αS,5R)-1-(3-fluorophenyl)-5-hydroxy-4α-methyl-1,4,4α,5,6,7-hexahydrocyclopenta[f]indazol-5-yl]ethyl}benzamide], 5 to 100%; for `CC1(NC(=O)c2ccccc2CC[C@]2(O)CCC3=Cc4c(cnn4-c4ccc(F)c(F)c4)C[C@@]32C)CC1` [Example 39, 2-{2-[(4αS,5R)-1-(3,4-difluorophenyl)-5-hydroxy-4α-methyl-1,4,4α,5,6,7-hexahydrocyclopenta[f]indazol-5-yl]ethyl}-N-(1-methylcyclopropyl)benzamide], 5 to 100%.
The same measure, in the same setting: in the case of `C=CCN(C)C(=O)c1ccccc1CC[C@]1(O)CCC2=Cc3c(cnn3-c3ccc(F)cc3)C[C@@]21C` [Example 50, N-allyl-2-{2-[(4αS,5R)-1-(4-fluorophenyl)-5-hydroxy-4α-methyl-1,4,4α,5,6,7-hexahydrocyclopenta[f]indazol-5-yl]ethyl}-N-methylbenzamide] it was 5 to 100%.
Turning to `C=C(F)CNC(=O)c1ccccc1CC[C@]1(O)CCC2=Cc3c(cnn3-c3ccc(F)cc3)C[C@@]21C` [Example 53, 2-{2-[(4αS,5R)-1-(4-fluorophenyl)-5-hydroxy-4α-methyl-1,4,4α,5,6,7-hexahydrocyclopenta[f]indazol-5-yl]ethyl}-N-(2-fluoroprop-2-en-1-yl)benzamide], the Emax under setting [1] was 5 to 100%.
